Read-outs that look alike come from different tables or passages of the source.

This note sets out measurements from patent US10947242B2, “[1,2,4]triazolo[1,5and#8208;A]pyrimidine compounds as PDE2 inhibitors” (Janssen Pharmaceutica NV, priority 2016, dated 2021).

Holding throughout (type): biochemical
The target in test [1] is T1, Human recombinant PDE2A (hPDE2A) (Homo sapiens, UniProt O00408).
T1 construct: His tag (inferred from metal chelate purification); made in house; host or cells: Sf9 insect cells (baculovirus)
As to the kind of experiment: In vitro assay PDE2A (SPA, 3H-cGMP hydrolysis). The note with it: for Emax: read-out: hPDE2A Emax.

In test [2] the target is T2, Human recombinant PDE3A (hPDE3A) (Homo sapiens, UniProt Q14432).
T2 construct: purchased Scottish Biomedical; host or cells: Sf9 insect cells
Briefly: In vitro assay PDE3A (SPA, 3H-cAMP hydrolysis).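 For all read-outs here: the method names PDE3A and the table heading PDE3B.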 The note with it: for IC50: hPDE3B pIC50, read-out: pIC50 (converted); for Emax: read-out: hPDE3B Emax, read-out: Emax. A digest of the protocol:
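Radiometric SPA measuring [3H]-cAMP hydrolysis (0.4 μM cAMP, 2.4 μCi/ml) over 60 min at room temperature, in Tris pH 7.8 buffer with MgCl2 and EGTA, 1% DMSO. Enzyme: recombinant human brain PDE3A expressed in Sf9 cells, used as partially purified lysate. Counts compared with enzyme-free blanks and vehicle controls.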

Test [3] has as its target T3, Human recombinant PDE10A (hPDE10A) (Homo sapiens, UniProt Q9Y233).
T3 construct: His tag (inferred from metal chelate purification); made in house; host or cells: Sf9 insect cells (baculovirus)
As to the kind of experiment: In vitro assay PDE10A, human clone (SPA, 3H-cAMP hydrolysis). A digest of the protocol: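 Hydrolysis of 3H-cAMP (60 nM cAMP, 0.008 μCi tracer) proceeded for 60 min at room temperature, with the product detected by SPA bead scintillation counting. The enzyme was hPDE10A from baculovirus-infected Sf9 cells in Tris pH 7.8 buffer with MgCl2 and EGTA, and compounds were at 1% DMSO final. Blanks lacked enzyme.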

Where [4] appears, read: read-out: hPDE2A pIC50 (converted).
Where [5] appears, read: human clone (h), default, read-out: hPDE10A2 Emax.
The mark [6] stands for this setting: human clone (h), default, read-out: hPDE10A2 pIC50 (converted).
Where [7] appears, read: human clone by default (no (r) mark), read-out: hPDE10A2 or rPDE10A2 Emax.
[8] abbreviates: human clone by default (no (r) mark), read-out: hPDE10A2 or rPDE10A2 pIC50 (converted).
Setting [9] is: human recombinant PDE2A, 10 μM cGMP substrate, read-out: hPDE2A pIC50 (converted).

T3 sequence (Q9Y233 267-1055): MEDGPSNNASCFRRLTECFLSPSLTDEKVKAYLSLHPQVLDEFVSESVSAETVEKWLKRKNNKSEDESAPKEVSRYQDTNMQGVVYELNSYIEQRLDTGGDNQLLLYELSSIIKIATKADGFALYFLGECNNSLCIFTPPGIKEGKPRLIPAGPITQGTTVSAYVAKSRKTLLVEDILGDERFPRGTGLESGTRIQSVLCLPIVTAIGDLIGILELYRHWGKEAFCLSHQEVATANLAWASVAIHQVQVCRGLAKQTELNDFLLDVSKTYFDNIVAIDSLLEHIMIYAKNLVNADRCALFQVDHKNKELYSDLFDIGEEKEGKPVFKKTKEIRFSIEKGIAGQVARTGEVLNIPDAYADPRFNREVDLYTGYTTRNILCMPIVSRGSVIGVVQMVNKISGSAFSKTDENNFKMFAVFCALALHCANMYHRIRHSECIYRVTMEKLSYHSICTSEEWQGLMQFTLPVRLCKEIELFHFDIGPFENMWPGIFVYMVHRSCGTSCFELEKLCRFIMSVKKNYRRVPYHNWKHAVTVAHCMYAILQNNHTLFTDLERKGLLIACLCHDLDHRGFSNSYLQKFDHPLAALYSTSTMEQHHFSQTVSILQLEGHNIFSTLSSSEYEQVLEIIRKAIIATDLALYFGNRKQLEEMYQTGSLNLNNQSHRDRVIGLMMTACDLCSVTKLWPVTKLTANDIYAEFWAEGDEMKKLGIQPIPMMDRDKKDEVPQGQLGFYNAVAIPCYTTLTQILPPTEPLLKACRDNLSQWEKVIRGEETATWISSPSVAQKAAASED
T2 sequence (Q14432 whole entry): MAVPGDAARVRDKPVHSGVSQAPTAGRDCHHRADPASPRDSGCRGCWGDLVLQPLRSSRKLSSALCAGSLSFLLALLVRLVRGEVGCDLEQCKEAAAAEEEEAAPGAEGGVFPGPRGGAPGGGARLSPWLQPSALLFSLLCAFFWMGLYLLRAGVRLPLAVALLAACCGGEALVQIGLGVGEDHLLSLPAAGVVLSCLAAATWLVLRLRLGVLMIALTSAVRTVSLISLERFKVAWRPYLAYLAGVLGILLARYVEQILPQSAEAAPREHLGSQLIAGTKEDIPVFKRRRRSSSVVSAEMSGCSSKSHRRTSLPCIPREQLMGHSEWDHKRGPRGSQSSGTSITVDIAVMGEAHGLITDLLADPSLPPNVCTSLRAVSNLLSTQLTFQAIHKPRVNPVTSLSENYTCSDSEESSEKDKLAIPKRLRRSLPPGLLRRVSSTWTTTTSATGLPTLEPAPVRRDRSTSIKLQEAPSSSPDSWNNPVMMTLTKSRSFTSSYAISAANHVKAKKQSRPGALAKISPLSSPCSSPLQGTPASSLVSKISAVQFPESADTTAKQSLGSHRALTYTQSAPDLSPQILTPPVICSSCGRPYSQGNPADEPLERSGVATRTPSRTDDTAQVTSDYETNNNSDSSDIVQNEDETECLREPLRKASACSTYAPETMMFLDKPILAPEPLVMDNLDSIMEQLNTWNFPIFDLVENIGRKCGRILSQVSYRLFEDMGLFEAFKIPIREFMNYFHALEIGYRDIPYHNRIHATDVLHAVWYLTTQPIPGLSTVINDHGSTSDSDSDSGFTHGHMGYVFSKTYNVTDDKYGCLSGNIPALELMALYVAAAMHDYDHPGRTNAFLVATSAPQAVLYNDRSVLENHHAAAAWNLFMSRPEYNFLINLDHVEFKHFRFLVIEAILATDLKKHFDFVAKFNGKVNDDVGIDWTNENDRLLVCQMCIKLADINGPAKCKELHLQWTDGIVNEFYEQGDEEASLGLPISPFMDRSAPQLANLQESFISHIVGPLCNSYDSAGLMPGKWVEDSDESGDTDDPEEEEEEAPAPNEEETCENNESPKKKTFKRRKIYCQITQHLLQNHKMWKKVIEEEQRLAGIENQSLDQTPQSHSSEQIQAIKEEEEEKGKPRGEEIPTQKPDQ
T1 sequence (O00408 whole entry): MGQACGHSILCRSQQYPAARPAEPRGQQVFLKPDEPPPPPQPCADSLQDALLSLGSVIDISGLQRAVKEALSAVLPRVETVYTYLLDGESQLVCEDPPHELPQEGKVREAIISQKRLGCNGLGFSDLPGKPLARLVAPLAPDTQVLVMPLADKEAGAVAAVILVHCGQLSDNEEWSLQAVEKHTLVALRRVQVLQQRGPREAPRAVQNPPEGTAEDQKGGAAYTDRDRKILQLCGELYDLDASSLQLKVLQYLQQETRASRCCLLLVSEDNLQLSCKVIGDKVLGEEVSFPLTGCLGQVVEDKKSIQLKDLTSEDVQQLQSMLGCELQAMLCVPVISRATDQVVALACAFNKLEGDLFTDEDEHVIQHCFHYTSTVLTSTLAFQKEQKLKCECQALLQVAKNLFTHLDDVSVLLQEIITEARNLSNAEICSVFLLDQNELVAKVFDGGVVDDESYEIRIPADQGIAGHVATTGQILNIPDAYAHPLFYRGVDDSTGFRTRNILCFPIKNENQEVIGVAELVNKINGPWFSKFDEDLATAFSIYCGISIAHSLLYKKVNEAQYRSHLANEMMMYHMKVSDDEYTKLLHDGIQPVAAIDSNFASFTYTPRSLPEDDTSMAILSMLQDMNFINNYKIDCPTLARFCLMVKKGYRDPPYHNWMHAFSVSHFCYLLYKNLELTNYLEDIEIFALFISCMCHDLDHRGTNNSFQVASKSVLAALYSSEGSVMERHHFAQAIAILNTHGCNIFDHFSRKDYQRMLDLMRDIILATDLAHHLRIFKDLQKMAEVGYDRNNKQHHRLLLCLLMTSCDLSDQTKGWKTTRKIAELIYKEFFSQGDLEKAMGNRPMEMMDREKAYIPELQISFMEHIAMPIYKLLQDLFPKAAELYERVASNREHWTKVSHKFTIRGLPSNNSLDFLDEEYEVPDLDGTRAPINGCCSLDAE

Turning to `Cc1ncc(C(=O)N2CC[C@@H](C)[C@H](c3cc(C(F)F)nc4ncnn34)C2)cn1` [Compound 244], the Emax in test [1] worked out at 92%; in test [2], 12%; in test [3] (setting [5]), 54%; in test [3] (setting [7]), 54%. Also, the IC50 in test [1] (setting [4]) is 0.676 µM; in test [2], over 10 µM; in test [3] (setting [6]), 9.33 µM; in test [3] (setting [8]), 9.33 µM.

Regarding `Cc1cc([C@@H]2CN(C(=O)c3cc(C4CC4)ncc3C3CC3)CC[C@H]2C)n2ncnc2n1` [Compound 390], the Emax in test [1] was 98%; in test [2], 84%; in test [3] (setting [7]), 99%. Besides, the results for the IC50 in test [1] (setting [4]), in test [2] and in test [3] (setting [8]) were 0.00209 µM, 2.57 µM and 0.0617 µM, respectively.

In the case of `Cc1cc([C@@H]2CN(C(=O)c3cc(C)sc3C)CC[C@H]2C)n2ncnc2n1` [Compound 16], the IC50 in test [1] (setting [9]) is 0.00617 µM; in test [1] (setting [4]), 0.00617 µM; in test [2], 1.66 µM; in test [3] (setting [6]) it was 0.0631 µM. For the same compound, the Emax in test [1] (human recombinant PDE2A) came to 100%; in test [1] it was 100%; in test [2], 88%; in test [3] (setting [5]), 98%.

For `Cn1cnc2cc(C(=O)N3[C@H]4CC[C@H](c5cc(C(F)F)nc6ncnn56)[C@@H]3CC4)ccc21` [Compound 379], the Emax in test [1] is 102%; in test [2] it was 67%; in test [3] (setting [7]), 87%. Besides, the IC50 in test [1] (setting [4]) is 0.0112 µM; in test [2], 5.25 µM; in test [3] (setting [8]) it was 1.62 µM.

`Cc1cc(C(=O)N2CC[C@@H](C)[C@H](c3cc(C(F)F)nc4ncnn34)C2)cc(C)[n+]1[O-]` [Compound 402]: the IC50 in test [1] (hPDE2A pIC50) is 0.0263 µM; in test [2], over 10 µM; in test [3] (setting [8]), 1.48 µM. Further, the results for the maximum response (Emax) in test [1], in test [2] and in test [3] (setting [7]) were 100%, 28% and 87%, respectively.

Turning to `C[C@@H]1CCN(C(=O)c2cc(F)ccn2)C[C@H]1c1cc(C(F)F)nc2ncnn12` [Compound 250], the Emax in test [1] amounted to 99%; in test [2] it was 28%; in test [3] (setting [5]), 64%; in test [3] (setting [7]), 64%. In addition, the IC50 in test [1] (setting [4]) is 0.132 µM; in test [2] it was over 10 µM; in test [3] (setting [6]) it was 4.9 µM; in test [3] (setting [8]) it was 4.9 µM.

Regarding `Cn1ncc2cc(C(=O)N3[C@H]4CC[C@H](c5cc(C(F)F)nc6ncnn56)[C@@H]3CC4)ccc21` [Compound 380], the figures for the Emax in test [1], in test [2] and in test [3] (setting [7]) were 101%, 72% and 96%, respectively. Further, the IC50 is 0.0055 µM in test [1] (setting [4]), 3.98 µM in test [2] and 0.363 µM in test [3] (setting [8]).

As to `Cc1coc2ccc(C(=O)N3CC[C@@H](C)[C@H](c4cc(C(F)F)nc5ncnn45)C3)cc12` [Compound 92], the IC50 in test [1] (setting [9]) is 0.000398 µM; in test [1] (setting [4]) it was 0.000398 µM; in test [2], 1.32 µM; in test [3] (setting [6]), 0.0245 µM. Also, the Emax in test [1] (human recombinant PDE2A) is 100%; in test [1], 100%; in test [2] it was 88%; in test [3] (setting [5]) it was 98%.

As for `Cc1cc([C@@H]2CN(C(=O)c3cc4c(nc3Cl)CCCC4)CC[C@H]2C)n2ncnc2n1` [Compound 12], the IC50 is 0.0214 µM in test [1] (setting [9]), 0.0214 µM in test [1] (setting [4]), 1.1 µM in test [2] and 0.363 µM in test [3] (setting [6]). The Emax in test [1] (human recombinant PDE2A) came to 101%; in test [1] it was 101%; in test [2], 94%; in test [3] (setting [5]), 97%.

For the compound `C[C@@H]1CCN(C(=O)c2ccc(C(F)(F)F)nc2)C[C@H]1c1cc(C(F)F)nc2ncnn12` [Compound 167], the IC50 in test [1] (setting [9]) is 0.0977 µM; in test [1] (setting [4]) it was 0.0977 µM; in test [2], 5.37 µM; in test [3] (setting [6]), 2 µM. Also, the Emax in test [1] (human recombinant PDE2A) was 97%; in test [1], 97%; in test [2], 64%; in test [3] (setting [5]), 81%.

As for `C[C@@H]1CCN(C(=O)c2cc(C(C)(C)C)nc(C(C)(C)C)c2)C[C@H]1c1cc(C(F)F)nc2ncnn12` [Compound 266], the Emax came to 100% in test [1], 74% in test [2], 89% in test [3] (setting [5]) and 89% in test [3] (setting [7]). The IC50 in test [1] (setting [4]) is 0.417 µM; in test [2] it was 5.37 µM; in test [3] (setting [6]), 2.63 µM; in test [3] (setting [8]), 2.63 µM.

For the compound `C[C@@H]1CCN(C(=O)c2ccc(C#N)cn2)C[C@H]1c1cc(C(F)F)nc2ncnn12` [Compound 234], the IC50 is 0.513 µM in test [1] (setting [9]); 0.513 µM in test [1] (setting [4]); over 10 µM in test [2]; 8.71 µM in test [3] (setting [6]); 8.71 µM in test [3] (setting [8]). Besides, the Emax in test [1] (human recombinant PDE2A) was determined as 96%; in test [1], 96%; in test [2], 22%; in test [3] (setting [5]), 59%; in test [3] (setting [7]) it was 59%.

Regarding `Cc1c(C(=O)N2CC[C@@H](C)[C@H](c3cc(C(F)F)nc4ncnn34)C2)ccc2c1OCO2` [Compound 145], the IC50 was 0.0363 µM in test [1] (setting [9]), 0.0363 µM in test [1] (setting [4]), 2.04 µM in test [2] and 0.646 µM in test [3] (setting [6]). Further, the Emax in test [1] (human recombinant PDE2A) stood at 99%; in test [1], 99%; in test [2], 86%; in test [3] (setting [5]) it was 93%.

Turning to `Cc1cc(C(=O)N2CC[C@@H](C)[C@H](c3cc(C(F)F)nc4ncnn34)C2)nc(C)n1` [Compound 141], the IC50 in test [1] (setting [9]) was 0.0295 µM; in test [1] (setting [4]), 0.0295 µM; in test [2], over 10 µM; in test [3] (setting [6]), 2.04 µM. Moreover, the Emax is 100% in test [1] (human recombinant PDE2A), 100% in test [1], 12% in test [2] and 81% in test [3] (setting [5]).

On to `Cc1nc(C)c(C(=O)N2CC[C@@H](C)[C@H](c3cc(C(F)F)nc4ncnn34)C2)s1` [Compound 264], for which the Emax was determined as 100% in test [1], 47% in test [2], 74% in test [3] (setting [5]) and 74% in test [3] (setting [7]). The IC50 in test [1] (setting [4]) is 0.105 µM; in test [2] it was 10.5 µM; in test [3] (setting [6]), 3.31 µM; in test [3] (setting [8]) it was 3.31 µM.

Take `O=C(c1ccc2c(c1)OC(F)(F)O2)N1[C@H]2CC[C@H](c3cc(C(F)F)nc4ncnn34)[C@@H]1CC2` [Compound 350]: the Emax in test [1] was 100%; in test [2], 74%; in test [3] (setting [7]) it was 85%. For the same compound, the IC50 was 0.0251 µM in test [1] (setting [4]), 4.9 µM in test [2] and 2.09 µM in test [3] (setting [8]).

Take `C[C@@H]1CCN(C(=O)c2ccc(O)nn2)C[C@H]1c1cc(C(F)F)nc2ncnn12` [Compound 236]: the IC50 in test [1] (setting [9]) was 0.209 µM; in test [1] (setting [4]), 0.209 µM; in test [2], over 10 µM; in test [3] (setting [6]) it was 7.76 µM; in test [3] (setting [8]) it was 7.76 µM. The Emax in test [1] (human recombinant PDE2A) was 100%; in test [1], 100%; in test [2] it was 18%; in test [3] (setting [5]), 58%; in test [3] (setting [7]), 58%.

`C[C@@H]1CCN(C(=O)c2cccnc2N)C[C@H]1c1cc(C(F)F)nc2ncnn12` [Compound 150]: the IC50 in test [1] (setting [9]) is 0.0398 µM; in test [1] (setting [4]) it was 0.0398 µM; in test [2], over 10 µM; in test [3] (setting [6]), 3.55 µM. Moreover, the Emax is 100% in test [1] (human recombinant PDE2A), 100% in test [1], 22% in test [2] and 72% in test [3] (setting [5]).

In the case of `Cc1cc(C(=O)N2[C@H]3CC[C@H](c4cc(C(F)F)nc5ncnn45)[C@@H]2CC3)c(F)cn1` [Compound 86], the figures for the Emax in test [1], in test [2] and in test [3] (setting [5]) were 100%, 34% and 40%, respectively. Besides, the IC50 was 0.0501 µM in test [1] (setting [4]), over 10 µM in test [2] and over 10 µM in test [3] (setting [6]).

As to `C[C@@H]1CCN(C(=O)c2nccnc2N)C[C@H]1c1cc(C(F)F)nc2ncnn12` [Compound 261], the Emax in test [1] came to 95%; in test [2], 19%; in test [3] (setting [5]), 45%; in test [3] (setting [7]), 45%. Also, the IC50 in test [1] (setting [4]) was 0.363 µM; in test [2], over 10 µM; in test [3] (setting [6]), over 10 µM; in test [3] (setting [8]), over 10 µM.

Consider `COc1nc(C2CC2)cc(C(=O)N2CC[C@@H](C)[C@H](c3cc(C(F)F)nc4ncnn34)C2)c1F` [Compound 276], for which the Emax in test [1] was 100%; in test [2], 93%; in test [3] (setting [7]), 98%. The values for the IC50 in test [1] (setting [4]), in test [2] and in test [3] (setting [8]) were 0.00224 µM, 1.29 µM and 0.166 µM, respectively.

With `C[C@@H]1CCN(C(=O)c2cnccn2)C[C@H]1c1cc(C(F)F)nc2ncnn12` [Compound 257], the Emax in test [1] was determined as 95%; in test [2] it was 15%; in test [3] (setting [5]) it was 45%; in test [3] (setting [7]), 45%. For the same compound, the IC50 in test [1] (setting [4]) is 0.263 µM; in test [2] it was over 10 µM; in test [3] (setting [6]) it was over 10 µM; in test [3] (setting [8]), over 10 µM.
